How the values were obtained:
Foxa-1, 2 and 3 = test: Expression levels of Foxa-1, 2 and 3 in primary hepatocytes (RT-PCR); type: cell-based; settings: insulin-treated cells
Foxa-2 [1] = test: Immunoblot of phospho-TI56 Foxa-2 in livers after intraportal insulin; type: in vivo, mice
Protocol: FIG. 15a is an immunoblot of Foxa-2 and Foxo-1 in liver nuclear extracts of fed (n=3) and starved (n=3) mice. Anti-TATA binding protein (Tbp) antibodies were used as a loading control. FIGS. 15b and 15c are immunoblots of Foxa-2 and Foxo-1 in nuclear extracts of livers from mice perfused with different concentrations of insulin. FIG. 15d is a Western blot of Foxa-2 immunoprecipitated with anti-Foxa-2 antibodies from whole cell extracts of livers obtained from fasted mice 30 minutes after injection of 10 ng insulin or PBS in the portal vein. Samples (n=3 for each group) were analyzed by immunoblot analysis with an antibody directed against phospho-TI56 Foxa-2 (top panel) or with an antibody directed against total Foxa-2 protein (bottom panel). […]
The role of Foxa-2 in the regulation of liver gene expression by nutritional status was examined by determining the intracellular localization of Foxa-2 in fasted and fed mice by Western blotting of Foxa-2 in liver nuclear extracts and by immunohistochemistry. […] Strong Foxa-2 immunostaining was detected in hepatocyte nuclei of control (PBS) mice. […] Foxa-2 protein levels were measured in liver nuclei of C57/B6 mice that were perfused with a buffer containing a range of insulin concentrations that included fasting and postprandial insulin levels (0.2 and 4.0 ng/ml, respectively). […] Foxa-2 levels were determined by immunoblotting. […]

Foxa-2 activity = test: Transactivation assay, HepG2 cells transfected with Foxa-2 and pPepck-Luc or p6xCdx-TkLuc; type: cell-based, rat; settings: insulin 100 nM for the duration of transfection
Source text: To analyze whether Foxa-2 activity is regulated by insulin, HepG2 cells were transfected with a Foxa-2 expression vector and either plasmid pPepck-Luc or p6xCdx-TkLuc that contain a 621 bp promoter framnent of the human PEPCK gene or six Foxa-2 binding sites of the Cdx-2 gene upstream of a minimal promoter and the luciferase gene, respectively.

[2] = test system: endogenous Foxa-2 activity in HepG2 cells; test: Endogenous Foxa-2 activity in HepG2 cells transfected with reporter construct alone; type: cell-based
Protocol: Transfections and Transactivation assay. HepG2 cells were grown to 60-70% confluence in a 24-well dish and transfected with 50 ng of each reporter gene (p6xCdx-TkLuc or pPEPCK-Luc), pCMV-β-Gal as internal reference and the expression vectors for wildtype or mutant Foxa-1 and Foxa-2 and human Akt1/Akt2 using the transfection reagent Fugene6 (Roche). Cells were grown for 48 hours and luciferase activity was measured using the Luciferase Detection System (Promega). Luciferase was normalized for transfection efficiency by β-galactosidase activity. […] To determine whether insulin decreases endogenous Foxa-2 activity in HepG2 cells, cells were transfected with the reporter construct alone and Foxa-2 activity was measured after stimulation with insulin and PI3-kinase or MAPKK1 inhibitors. […] This decrease in activity was ablated when cells were coincubated with Ly294002 but not with PD98059 (FIG. 10b).

Foxa-2 [3] = test: Nuclear Foxa-2 in perfused livers, immunoblotting; type: in vivo, mice
[4] = test system: Pref-1, Hk-2, m2Pk, Glut-4 and Ucp-2/3; test: Expression of putative Foxa-2 target genes in primary adipocytes cultured with insulin; type: cell-based, mice; settings: 100 nM insulin for 60 hours vs untreated adipocytes
Foxa-2 expression = Foxa-2 expression in primary adipocytes from ob/ob mice, semiquantitative RT-PCR; type: cell-based; settings: insulin 100 μM as printed, prolonged culturing (24 and 60 hours)
Protocol: Total RNA was extracted from cells and EBs using Trizol following manufacturer's instructions (Life Technologies, Inc.). […] The cDNAs provided templates for polymerase chain reactions (PCRs) using specific primers at annealing temperatures ranging between 60 and 65° C. in the presence of dNTPs, [α^-32P]dCTP, and Taq DNA polymerase. […] Primary adipocytes were isolated as described by Rodbell (1964) J. Biol. Chem. 239:375-380. […] (1995) J. Cell. Biochem. 58:435-463. The reaction was stopped by spinning through dinonyl […] oil and the radioactivity quantified by scintillation counting. […] (1995) Am. J. Physiol. 268:[…]-[…]. Fatty acid de novo synthesis was analyzed by saponification of total lipids as described by […] et al. (1978) J. […] Incorporation into lipid glycerol was calculated by subtracting fatty acid radioactive label from total lipid radioactive label. Primary adipocytes were isolated from ob/ob mice and cultured in MEM medium (control) or in the presence of insulin (100 μM; 24 hours and 60 hours, respectively) or rosiglitazone (50 μM), WY14,643 (100 μM), dexamethason (1 μM), leptin (100 ng/ml), TNF-α, (5 ng/ml), adiponectin (500 ng/ml) and glucagons (100 nM) for 60 hours. Gene expression was measured by semiquantitative RT-PCR. Steady state mRNA levels of Hprt were used as a control and indicate that each lane contains similar amounts of rnRNA. Reactions were also assayed in the absence of reverse transcriptase, showing that mRNA was not contaminated with genomic DNA.

What does the source list for “insulin: Insulin was from Sigma; hormone used as stimulus”?
expression levels of Foxa-1, 2 and 3 (Foxa-1, 2 and 3): did not significantly change; phosphorylated Foxa-2 detected by anti-phospho TI56 peptide antibody (Foxa-2 [1]; intraportal injection of insulin vs PBS): recognized phosphorylated Foxa-2; Foxa-2 protein levels (anti-Foxa-2 antibodies) (Foxa-2 [1]; treated vs untreated livers): the same; Foxa-2 activity (luciferase reporter) (Foxa-2 activity): significantly decreased; decrease of Foxa-2 activity ([2]; 500 nM insulin): 80%; Foxa-2 activity, dose dependence ([2]; insulin stimulation): dose-dependent decrease; increase in nuclear Foxa-2 levels (Foxa-2 [3]; in response to insulin stimulation, within 5-20 minutes): > 20 fold; change in nuclear Foxa-2 expression (Foxa-2 [3]; livers exposed to low (fasting) vs high (postprandial) insulin levels): > 20 fold; nuclear Foxa-2 level (Foxa-2 [3]; perfusion with 2.0 ng/ml insulin, 20 minutes): barely detectable levels; expression of Pref-1, Hk-2, m2Pk, Glut-4 and Ucp-2/3 [4]: upregulation; Foxa-2 expression (Foxa-2 expression): strong increase

— patent US20070166710A1, “Methods for inhibiting adipogenesis and for treating type 2 diabetes” (priority 2003, published 2007)
